Patent US12622910B2, “Inhibitors of Bruton's tyrosine kinase and methods of their use” (Janssen Pharmaceutica NV, priority 2021, dated 2026)

How the values were obtained:
[1] = Plasma protein binding, equilibrium dialysis; assay type: in vitro ADME, guinea pig
Description: Additional Data on Preclinical PK Profile—Protein binding of the compound of Formula (III) was studied using an equilibrium dialysis method in plasma from human, cynomolgus monkey, beagle dog, Sprague Dawley rat, CD-1 mouse, and guinea pig at 0.25, 2.5, and 25 μM. […] In human and monkey, the plasma protein binding was concentration dependent. […] Free fraction of the compound of Formula (III) in liver microsomes from various species ranged from 75.1% to 87.9% at 0.25 mg/mL and from 58.9% to 86.5% at 1.0 mg/mL (Table 17). […] In hepatocytes, the compound of Formula (III) turnover followed a similar trend, with T1/2 ranging from 75.3 minutes in monkey to 278.1 minutes in human.

BTK = BTK (Homo sapiens, UniProt Q06187); assay: Mechanistic PK/BTKO model and simulations; parameters: measuring free BTK levels in peripheral blood mononuclear cells (PBMCs) and calculating % BTKO; endogenous in cells; host or cells: human PBMCs, lysed after isolation from whole blood
Text: A mechanistic covalent binding model (FIG. 2) was used to describe the receptor occupancy of compound of Formula (III). The equations describing the binding model are shown in equations 1-5.
where symbols represent the free BTK protein concentration (BTK), drug-BTK complex (BTKb) and covalently bound complex (BTKi). The rate constants in the equations include zero-order rate of BTK synthesis (ksyn); the first-order rate of free BTK degradation (kdegf); the first-order rate of covalently bound complex degradation (Kdegi); association rate drug-BTK binding (kon); dissociation rate drug-BTK binding (koff). C1 is the concentration in central compartment. BTK0 is the baseline value of BTK. […]
In order to refine predictions of % BTKO after multiple dosing for the MAD cohorts and to help select a starting dose for the subsequent first-in-patient oncology study, a prior mechanistic PK/PD model based on in vitro and in vivo BTKO data was updated with clinical PK/BTKO data collected from SAD cohorts of the FIH study. […] The evaluated dosing regimens included 12 mg, 36 mg, 70 mg, 100 mg, 140 mg, 200 mg QD dose. […]
Once MAD data were available, the semi-mechanistic PK/PD model was updated with the acquired data from SAD and MAD cohorts. All covariate effects in the popPK analysis were evaluated on clearance from the central compartment (CL/F) only, except for body weight, food effect, and drug formulation. […]

BTK, sequence (Q06187 whole entry): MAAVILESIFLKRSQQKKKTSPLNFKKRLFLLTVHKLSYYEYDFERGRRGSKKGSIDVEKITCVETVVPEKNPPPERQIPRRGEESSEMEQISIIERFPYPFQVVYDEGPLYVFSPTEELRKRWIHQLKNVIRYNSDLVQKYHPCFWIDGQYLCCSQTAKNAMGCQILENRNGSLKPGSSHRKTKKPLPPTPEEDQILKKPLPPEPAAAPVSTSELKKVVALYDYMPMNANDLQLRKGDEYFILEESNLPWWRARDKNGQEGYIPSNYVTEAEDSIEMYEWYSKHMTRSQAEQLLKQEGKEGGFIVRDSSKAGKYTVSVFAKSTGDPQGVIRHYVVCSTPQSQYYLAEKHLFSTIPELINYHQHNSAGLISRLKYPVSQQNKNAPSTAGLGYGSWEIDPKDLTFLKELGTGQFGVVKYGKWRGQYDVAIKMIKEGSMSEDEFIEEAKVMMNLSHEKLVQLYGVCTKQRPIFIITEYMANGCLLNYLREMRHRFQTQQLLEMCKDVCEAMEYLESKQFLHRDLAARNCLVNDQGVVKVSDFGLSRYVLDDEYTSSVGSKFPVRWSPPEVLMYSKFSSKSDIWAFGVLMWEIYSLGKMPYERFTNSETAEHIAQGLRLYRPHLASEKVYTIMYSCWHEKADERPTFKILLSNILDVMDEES

C=CC(=O)N[C@H]1CCC[C@H]1NC(=O)c1sc2nccc3c2c1NC(=O)N3c1cnc(CC(C)C)cc1C (atropisomer, axis not shown) [compound of Formula (III), N-((1R,2S)-2-Acrylamidocyclopentyl)-5-(S)-(6-isobutyl-4-methylpyridin-3-yl)-4-oxo-4,5-dihydro-3H-1-thia-3,5,8-triazaacenaphthylene-2-carboxamide]
% Free in plasma ([1]; 2.5 μM): 3.23% | % Free in plasma ([1]; 25 μM): 3.72% | fraction unbound at 0.25 μM ([1]; guinea pig, plasma, 0.25 μM, read-out: % Free in plasma): 0.0326 | kon, PD model estimate (BTK; model (A), SAD cohorts 2-5): 0.0447 l/nM/h | kon, PD model estimate (BTK; model (B), all SAD and MAD data): 0.0509 l/nM/h
